“Also recorded” adds a separate entry of the source. Structures can show the parent of a compound that is named as a salt.
Legend:
[1] = target: sigma-1 receptor (Homo sapiens, UniProt Q99720); settings: cited from earlier work
[2] = Plasma concentrations of d6-DM, d6-DM metabolites and Q by CYP2D6 metabolizer group; type: in vivo, human; settings: for Plasma concentration/exposure in relation to d6-DM dose of AVP-786: AVP-786-28 vs AVP-786-42.63; for Changes in plasma concentrations from Week 6 to Week 12: all patients combined, sample 0-3 hours after morning dose; for Plasma concentration by CYP2D6 metabolizer group: poor, intermediate, extensive, ultra-rapid metabolizers
Protocol: Plasma samples were separated by centrifugation and frozen at −20° C. until assayed at the analytical unit.

[3] = target: P-glycoprotein (Homo sapiens, UniProt P08183); settings: cited from earlier work
P-glycoprotein, sequence (P08183 whole entry): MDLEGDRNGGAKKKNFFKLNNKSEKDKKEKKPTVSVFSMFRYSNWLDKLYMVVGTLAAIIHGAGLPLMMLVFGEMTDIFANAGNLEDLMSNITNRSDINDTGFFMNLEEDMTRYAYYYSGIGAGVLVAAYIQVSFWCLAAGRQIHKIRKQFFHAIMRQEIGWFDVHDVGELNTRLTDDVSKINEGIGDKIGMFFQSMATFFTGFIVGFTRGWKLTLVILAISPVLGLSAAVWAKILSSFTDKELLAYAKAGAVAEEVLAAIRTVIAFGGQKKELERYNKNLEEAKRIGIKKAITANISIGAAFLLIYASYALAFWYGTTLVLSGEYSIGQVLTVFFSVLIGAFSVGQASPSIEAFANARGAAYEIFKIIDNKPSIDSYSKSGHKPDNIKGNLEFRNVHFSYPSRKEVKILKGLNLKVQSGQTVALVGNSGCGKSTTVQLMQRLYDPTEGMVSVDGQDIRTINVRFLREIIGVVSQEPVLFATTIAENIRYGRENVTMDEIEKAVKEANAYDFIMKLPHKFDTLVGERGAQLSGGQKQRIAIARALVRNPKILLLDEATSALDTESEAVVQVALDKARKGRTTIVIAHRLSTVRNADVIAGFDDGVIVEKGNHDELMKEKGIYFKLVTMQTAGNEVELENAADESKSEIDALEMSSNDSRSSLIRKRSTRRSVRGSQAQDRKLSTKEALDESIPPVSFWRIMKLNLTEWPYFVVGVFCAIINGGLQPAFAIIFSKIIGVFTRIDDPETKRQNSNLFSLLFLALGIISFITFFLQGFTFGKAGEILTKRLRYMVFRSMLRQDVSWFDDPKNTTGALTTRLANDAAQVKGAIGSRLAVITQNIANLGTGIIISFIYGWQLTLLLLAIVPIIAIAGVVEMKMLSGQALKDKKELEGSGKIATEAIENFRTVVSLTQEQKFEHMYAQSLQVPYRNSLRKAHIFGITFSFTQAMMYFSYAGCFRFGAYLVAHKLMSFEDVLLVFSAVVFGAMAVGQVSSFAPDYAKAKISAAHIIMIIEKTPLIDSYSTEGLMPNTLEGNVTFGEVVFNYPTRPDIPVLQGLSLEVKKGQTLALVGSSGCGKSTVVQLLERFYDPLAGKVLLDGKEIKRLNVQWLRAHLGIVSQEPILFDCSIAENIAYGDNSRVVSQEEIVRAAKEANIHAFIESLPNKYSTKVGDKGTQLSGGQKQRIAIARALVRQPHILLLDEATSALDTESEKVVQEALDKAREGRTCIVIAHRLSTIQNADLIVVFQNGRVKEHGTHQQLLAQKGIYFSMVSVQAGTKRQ

sigma-1 receptor, sequence (Q99720 whole entry, species assumed): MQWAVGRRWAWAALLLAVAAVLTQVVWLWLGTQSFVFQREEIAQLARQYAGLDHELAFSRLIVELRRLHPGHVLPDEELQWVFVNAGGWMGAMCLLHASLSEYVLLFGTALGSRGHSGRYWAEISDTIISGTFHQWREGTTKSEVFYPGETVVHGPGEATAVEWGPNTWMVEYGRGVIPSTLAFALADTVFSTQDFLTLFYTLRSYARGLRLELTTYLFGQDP

Row | SMILES | receptor binding [1] | Plasma concentration/exposure in relation to d6-DM dose of AVP-786 ([2]; hydrobromide) | Changes in plasma concentrations from Week 6 to Week 12 [2] | Plasma concentration by CYP2D6 metabolizer group [2] | Plasma concentration/exposure in relation to d6-DM dose of AVP-786 [2] | P-glycoprotein inhibition [3]
1 | [2H]C([2H])([2H])Oc1ccc2c(c1)[C@]13CCCC[C@@H]1[C@H](C2)N(C([2H])([2H])[2H])CC3 [d6-DM, deuterated [d6]-dextromethorphan hydrobromide] | binds to the sigma-1 receptor | generally higher; also recorded: increased with the increase in d6-DM dose | did not appear to be any significant changes | highest in the poor and intermediate metabolizer groups and lowest in the ultra-rapid metabolizer group |  | 
2 | [2H]C([2H])([2H])Oc1ccc2c(c1)C13CCCCC1C(C2)NCC3 (centres unmarked) [d3-3-MM, d3-3-methoxymorphinan] |  |  | did not appear to be any significant changes | highest in the poor and intermediate metabolizer groups and lowest in the ultra-rapid metabolizer group |  | 
3 | [2H]C([2H])([2H])N1CCC23CCCCC2C1Cc1ccc(O)cc13 (centres unmarked) [d3-DX, d3-dextrorphan] |  |  | did not appear to be any significant changes | lowest in the poor metabolizer group and highest in the extensive and ultra-rapid metabolizer groups | generally higher; also recorded: increased with the increase in d6-DM dose | 
4 | C=C[C@H]1C[N@]2CC[C@@H]1C[C@@H]2[C@@H](O)c1ccnc2ccc(OC)cc12 [Quinidine, quinidine sulfate] |  |  |  |  |  | P-glycoprotein inhibitor
5 | C=C[C@H]1C[N@@]2CC[C@H]1C[C@@H]2[C@@H](O)c1ccnc2ccc(OC)cc12 [Q, Quinidine, reference compound] |  |  | did not appear to be any significant changes |  |  | 
